From paper PMC8225045, “Chemical Synthesis and Structure-Activity Relationship Study Yield Desotamide a Analogues with Improved Antibacterial Activity” (Marine Drugs, 2021)
≈ marks a conversion by molar mass, not a printed value. Where two headings read alike, the source gives them in different places. Non-standard residues stand in square brackets, D forms with d. Residues, ends and D or L forms follow the SMILES beside them. aIle = CC[C@@H](C)[C@H](N)C(=O)O; dOrn = NCCC[C@@H](N)C(=O)O

Tests used:
E. coli ATCC 13124 = tested on: E. coli ATCC 13124
Description: (§1) All the synthesized cyclopeptides (7–19) and the desotamide A (1) isolated from S. scopuliridis SCSIO ZJ46 were evaluated for antibacterial activities against a series of Gram-positive pathogens including […] Staphylococcus aureus ATCC29213, Bacillus subtilis BS01, Micrococcus luteus ML01, Enterococcus faecalis ATCC29212; 3 drug-resistant poultry pathogens Staphylococcus simulans LJH13, Enterococcus gallinarum LJH11, Staphylococcus haemolyticus LJH9; 4 clinical methicillin-resistant Staphylococcus aureus (MRSA) shhs-E1, MRSA 16339, MRSA 745524, MRSA 16162. Their antibacterial activities against the […] pathogens Escherichia coli ATCC 13,124 and clinical drug-resistant Klebsiella pneumonia 15580 were also assayed.
(§2) Ampicillin, vancomycin and polymyxin were used as control. The maximum test concentrations for all the compounds were 128 μg/mL.

[1] = tested on: Klebsiella pneumoniae 15580
Description: as §1, §2

Bacillus subtilis BS01 = assay: microbe, parasite or virus in culture
Description: as §1, §2

[2] = tested on: Enterococcus faecalis ATCC 29212; assay: microbe, parasite or virus in culture
Description: as §1, §2

[3] = tested on: Enterococcus gallinarum LJH11; assay: microbe, parasite or virus in culture
Description: as §1, §2

MRSA 16162 = assay: microbe, parasite or virus in culture
Description: as §1, §2

MRSA 16339 = assay: microbe, parasite or virus in culture
Description: as §1, §2

MRSA 745524 = assay: microbe, parasite or virus in culture
Description: as §1, §2

Micrococcus luteus ML01 = assay: microbe, parasite or virus in culture
Description: as §1, §2

[4] = tested on: Staphylococcus aureus ATCC 29213; assay: microbe, parasite or virus in culture
Description: as §1, §2

[5] = tested on: Staphylococcus haemolyticus LJH9; assay: microbe, parasite or virus in culture
Description: as §1, §2

[6] = tested on: Staphylococcus simulans LJH13; assay: microbe, parasite or virus in culture
Description: as §1, §2

[7] = tested on: methicillin-resistant Staphylococcus aureus (MRSA) shhsE1; assay: microbe, parasite or virus in culture
Description: as §1, §2

Gram-positive pathogens = details: for Gram positive antibacterial activity for wollamides (in words) / Gram positive antibacterial activity for desotamides (in words): summary; for Gram positive antibacterial activity for wollamides (in words): Figure 3; for fold increase of anti-Gram-positive activity compared to wollamide B (7): Gram-positive bacteria; for Gram positive antibacterial activity for desotamides (in words): Figure 2
Description: as §1, §2

Gram-negative pathogens = details: weak activity; summary of Table 1
Description: as §1, §2

[8] = E. coli ATCC 13124, two-fold serial dilution, Mueller-Hinton broth, 96-well plate, CLSI-based, maximum test concentration 128 μg/mL
[9] = clinical drug-resistant Klebsiella pneumoniae 15580, two-fold serial dilution, Mueller-Hinton broth, 96-well plate, CLSI-based, maximum test concentration 128 μg/mL
[10] = Enterococcus gallinarum LJH11, drug-resistant poultry pathogen, two-fold serial dilution, Mueller-Hinton broth, 96-well plate, CLSI-based, maximum test concentration 128 μg/mL
[11] = clinical MRSA shhsE1, two-fold serial dilution, Mueller-Hinton broth, 96-well plate, CLSI-based, maximum test concentration 128 μg/mL

Molecule | MIC (E. coli ATCC 13124; [8]) [µg/mL] | MIC [7, 11] [µg/mL] | Gram positive antibacterial activity for wollamides (in words) (Gram-positive pathogens) | MIC (Bacillus subtilis BS01; BS01) [µg/mL] | MIC ([2]; ATCC 29212) [µg/mL] | MIC [3] [µg/mL] | MIC (MRSA 16162; 16162) [µg/mL] | MIC (MRSA 16339; 16339) [µg/mL] | MIC (MRSA 745524; 745524) [µg/mL] | MIC (Micrococcus luteus ML01; ML01) [µg/mL] | MIC ([4]; ATCC 29213) [µg/mL] | MIC [5] [µg/mL] | MIC [6] [µg/mL] | MIC [1]; 15580 [µg/mL] | MIC ([7]; methicillin-resistant shhsE1) [µg/mL] | Gram positive antibacterial activity for desotamides (in words) (Gram-positive pathogens) | further results
polymyxin [reference compound] | 16 | – | – | – | – | – | – | – | – | – | – | – | – | – | – | – | MIC [1, 9]: 2 µg/mL
CC(C)C[C@@H]1NC(=O)[C@H](Cc2c[nH]c3ccccc23)NC(=O)[C@@H](CCCN)NC(=O)[C@H](CC(N)=O)NC(=O)[C@H](C(C)C)NC(=O)[C@@H](CC(C)C)NC1=O [Compound 7, Wollamide B] (cyclo([dOrn]WL[dL]VN)) | 128 (≈ 173 µM) | 32 (≈ 43.2 µM) | Moderately active | – | – | – | – | – | – | – | – | – | – | – | – | – | MIC (Bacillus subtilis BS01; Bacillus subtilis BS01, two-fold serial dilution, Mueller-Hinton broth, 96-well plate, CLSI-based, maximum test concentration 128 μg/mL): 32 µg/mL (≈ 43.2 µM); MIC ([2]; Enterococcus faecalis ATCC 29212, two-fold serial dilution, Mueller-Hinton broth, 96-well plate, CLSI-based, maximum test concentration 128 μg/mL): 128 µg/mL (≈ 173 µM); MIC [3, 10]: >128 µg/mL; MIC (MRSA 16162; clinical MRSA 16162, two-fold serial dilution, Mueller-Hinton broth, 96-well plate, CLSI-based, maximum test concentration 128 μg/mL): 64 µg/mL (≈ 86.5 µM); MIC (MRSA 16339; clinical MRSA 16339, two-fold serial dilution, Mueller-Hinton broth, 96-well plate, CLSI-based, maximum test concentration 128 μg/mL): 64 µg/mL (≈ 86.5 µM); MIC (MRSA 745524; clinical MRSA 745524, two-fold serial dilution, Mueller-Hinton broth, 96-well plate, CLSI-based, maximum test concentration 128 μg/mL): 32 µg/mL (≈ 43.2 µM); MIC (Micrococcus luteus ML01; Micrococcus luteus ML01, two-fold serial dilution, Mueller-Hinton broth, 96-well plate, CLSI-based, maximum test concentration 128 μg/mL): 16 µg/mL (≈ 21.6 µM); MIC ([4]; Staphylococcus aureus ATCC 29213, two-fold serial dilution, Mueller-Hinton broth, 96-well plate, CLSI-based, maximum test concentration 128 μg/mL): 32 µg/mL (≈ 43.2 µM); MIC ([5]; Staphylococcus haemolyticus LJH9, drug-resistant poultry pathogen, two-fold serial dilution, Mueller-Hinton broth, 96-well plate, CLSI-based, maximum test concentration 128 μg/mL): 64 µg/mL (≈ 86.5 µM); MIC ([6]; Staphylococcus simulans LJH13, drug-resistant poultry pathogen, two-fold serial dilution, Mueller-Hinton broth, 96-well plate, CLSI-based, maximum test concentration 128 μg/mL): 16 µg/mL (≈ 21.6 µM); MIC [1, 9]: >128 µg/mL
CC(C)C[C@@H]1NC(=O)[C@H](Cc2c[nH]c3ccccc23)NC(=O)[C@@H](CCCNC(=N)N)NC(=O)[C@H](CC(N)=O)NC(=O)[C@H](C(C)C)NC(=O)[C@@H](CC(C)C)NC1=O [Compound 8, Wollamide B1] (cyclo([dR]WL[dL]VN)) | 128 (≈ 164 µM) | 16 (≈ 20.5 µM) | 2–4-Fold more active than 7 | 8 (≈ 10.2 µM) | 32 (≈ 40.9 µM) | 64 (≈ 81.8 µM) | 16 (≈ 20.5 µM) | 16 (≈ 20.5 µM) | 16 (≈ 20.5 µM) | 8 (≈ 10.2 µM) | 16 (≈ 20.5 µM) | 32 (≈ 40.9 µM) | 8 (≈ 10.2 µM) | >128 | – | – | fold increase of anti-Gram-positive activity compared to wollamide B (7) (Gram-positive pathogens): 2–4 folds
CC[C@@H](C)[C@@H]1NC(=O)[C@H](CC(N)=O)NC(=O)[C@@H](CCCCN)NC(=O)[C@H](Cc2c[nH]c3ccccc23)NC(=O)[C@H](CC(C)C)NC(=O)[C@@H](CC(C)C)NC1=O [Compound 11, Desotamide A2] (cyclo(LW[dK]N[aIle][dL])) | – | – | – | >128 | >128 | >128 | >128 | >128 | >128 | >128 | >128 | >128 | >128 | >128 | >128 | Inactive | –
CC[C@@H](C)[C@@H]1NC(=O)[C@H](CC(N)=O)NC(=O)[C@@H](Cc2c[nH]cn2)NC(=O)[C@H](Cc2c[nH]c3ccccc23)NC(=O)[C@H](CC(C)C)NC(=O)[C@@H](CC(C)C)NC1=O [Compound 12, Desotamide A3] (cyclo(LW[dH]N[aIle][dL])) | – | – | – | >128 | >128 | >128 | >128 | >128 | >128 | >128 | >128 | >128 | >128 | >128 | >128 | Inactive | –
CC[C@H](C)[C@@H]1NC(=O)[C@H](CC(N)=O)NC(=O)[C@@H](CCCNC(=N)N)NC(=O)[C@H](Cc2c[nH]c3ccccc23)NC(=O)[C@H](CC(C)C)NC(=O)[C@@H](CC(C)C)NC1=O [Compound 15, Desotamide A6] (cyclo(I[dL]LW[dR]N)) | – | – | – | 8 (≈ 10.1 µM) | 32 (≈ 40.2 µM) | 128 (≈ 161 µM) | 16 (≈ 20.1 µM) | 16 (≈ 20.1 µM) | 8 (≈ 10.1 µM) | 8 (≈ 10.1 µM) | 16 (≈ 20.1 µM) | 32 (≈ 40.2 µM) | 8 (≈ 10.1 µM) | >128 | 8 (≈ 10.1 µM) | 2–4-Fold more active than 1 | MIC against the Gram-negative pathogens tested (summary) (Gram-negative pathogens): 64 to 128 µg/mL; MIC values against Gram-positive pathogens (summary over the panel) (Gram-positive pathogens): 8 to 32 µg/mL; fold increase of antibacterial activities compared to desotamide A (1) (Gram-positive pathogens; entire test panel of Gram-positive bacteria): 2–4 fold
CC[C@@H](C)[C@@H]1NC(=O)[C@@H](CC(C)C)NC(=O)[C@H](CC(C)C)NC(=O)[C@H](Cc2c[nH]c3ccccc23)NC(=O)CNC(=O)[C@H](CC(N)=O)NC1=O [Compound 1, desotamide A] (cyclo(GWL[dL][aIle]N)) | – | – | – | 32 (≈ 45.9 µM) | 64 (≈ 91.8 µM) | 64 (≈ 91.8 µM) | 32 (≈ 45.9 µM) | 16 (≈ 23 µM) | 8 (≈ 11.5 µM) | 32 (≈ 45.9 µM) | 32 (≈ 45.9 µM) | 128 (≈ 184 µM) | 16 (≈ 23 µM) | >128 | 64 (≈ 91.8 µM) | Moderately active | MIC (E. coli ATCC 13124; ATCC 13124): >128 µg/mL
CC(C)C[C@@H]1NC(=O)[C@H](Cc2c[nH]c3ccccc23)NC(=O)[C@@H](CCCCN)NC(=O)[C@H](CC(N)=O)NC(=O)[C@H](C(C)C)NC(=O)[C@@H](CC(C)C)NC1=O [Compound 9, Wollamide B2] (cyclo([dK]WL[dL]VN)) | – | 32 (≈ 42.4 µM) | 2–4-Fold more active than 7 | 16 (≈ 21.2 µM) | 64 (≈ 84.9 µM) | – | 32 (≈ 42.4 µM) | 32 (≈ 42.4 µM) | 32 (≈ 42.4 µM) | 16 (≈ 21.2 µM) | 32 (≈ 42.4 µM) | 32 (≈ 42.4 µM) | 16 (≈ 21.2 µM) | >128 | – | – | MIC [3, 10]: 128 µg/mL (≈ 170 µM); fold increase of anti-Gram-positive activity compared to wollamide B (7) (Gram-positive pathogens): 2–4 folds
